Assay results taken from ChEMBL document CHEMBL4340530, “Peptide-based covalent inhibitors of MALT1 paracaspase” (Bioorg Med Chem Lett, 2019).
Activity calls are given as the source filed them. No cut-off for these calls is given here.

How the values were obtained:
[1] = tested on: OCI-Ly3; assay: Antiproliferative activity against human OCI-LY3 cells assessed as growth inhibition treated every 48 hrs measured after 96 hrs by CellTiter-Glo assay; type: functional
[2] = biological target: T1, Mucosa-associated lymphoid tissue lymphoma translocation protein 1 (Homo sapiens) (UniProt Q9UDY8); assay: Inhibition of MALT1 in human OCI-LY3 cells assessed as reduction in Relb cleavage at 20 uM by Western blot analysis; type: cell-based
T1 sequence (whole entry): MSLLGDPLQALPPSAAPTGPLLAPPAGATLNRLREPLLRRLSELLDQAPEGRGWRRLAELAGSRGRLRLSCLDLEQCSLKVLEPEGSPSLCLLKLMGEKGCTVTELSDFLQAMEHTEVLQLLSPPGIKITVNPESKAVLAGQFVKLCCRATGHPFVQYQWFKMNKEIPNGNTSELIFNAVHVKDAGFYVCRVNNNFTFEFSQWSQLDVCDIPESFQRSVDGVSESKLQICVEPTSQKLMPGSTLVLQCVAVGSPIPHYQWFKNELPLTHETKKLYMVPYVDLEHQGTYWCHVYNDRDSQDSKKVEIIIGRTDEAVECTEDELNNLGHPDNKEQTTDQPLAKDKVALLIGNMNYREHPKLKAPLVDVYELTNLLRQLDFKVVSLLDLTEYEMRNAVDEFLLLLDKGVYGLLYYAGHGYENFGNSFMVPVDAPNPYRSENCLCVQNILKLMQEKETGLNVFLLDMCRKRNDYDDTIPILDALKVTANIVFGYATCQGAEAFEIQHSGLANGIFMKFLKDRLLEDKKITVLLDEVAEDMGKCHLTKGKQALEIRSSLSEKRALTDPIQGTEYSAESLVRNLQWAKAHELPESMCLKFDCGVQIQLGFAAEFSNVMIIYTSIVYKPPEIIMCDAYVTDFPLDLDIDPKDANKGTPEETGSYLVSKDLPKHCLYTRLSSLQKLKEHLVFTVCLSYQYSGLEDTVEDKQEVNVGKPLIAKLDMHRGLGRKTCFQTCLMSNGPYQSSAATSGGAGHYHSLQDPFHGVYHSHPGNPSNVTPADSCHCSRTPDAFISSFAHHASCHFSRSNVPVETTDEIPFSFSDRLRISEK

[3] = biological target: T2, Mucosa-associated lymphoid tissue lymphoma translocation protein 1 (Homo sapiens, UniProt Q9UDY8); assay: Inhibition of recombinant LZ-fused MALT1 (340 to 789 residues) (unknown origin) using Ac-LRSR-AMC as substrate by fluorescence assay
T2 sequence (Q9UDY8 whole entry): T1 sequence (whole entry)

[4] = tested on: OCI-Ly1; assay: Antiproliferative activity against human OCI-LY1 cells up to 20 uM; type: functional, cell-based
[5] = biological target: Cathepsin B (Homo sapiens) (UniProt P07858); assay: Inhibition of cathepsin B (unknown origin) at 10 uM relative to control
[6] = biological target: Prothrombin (Homo sapiens) (UniProt P00734); assay: Inhibition of thrombin (unknown origin) at 100 nM relative to control
[7] = biological target: Cathepsin S (Homo sapiens) (UniProt P25774); assay: Inhibition of cathepsin S (unknown origin) at 1 uM relative to control
[8] = biological target: T3, Cathepsin L2 (Homo sapiens) (UniProt O60911); assay: Inhibition of cathepsin V (unknown origin) at 1 uM relative to control
T3 sequence (whole entry): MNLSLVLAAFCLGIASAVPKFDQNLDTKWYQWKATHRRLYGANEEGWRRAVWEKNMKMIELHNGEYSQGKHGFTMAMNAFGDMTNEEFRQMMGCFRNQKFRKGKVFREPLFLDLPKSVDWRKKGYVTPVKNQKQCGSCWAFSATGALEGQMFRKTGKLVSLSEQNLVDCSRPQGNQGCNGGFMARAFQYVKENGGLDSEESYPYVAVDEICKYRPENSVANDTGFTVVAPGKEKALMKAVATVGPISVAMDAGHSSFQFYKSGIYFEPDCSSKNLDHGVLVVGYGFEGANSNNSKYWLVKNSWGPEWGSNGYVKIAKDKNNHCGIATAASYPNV

[9] = biological target: T4, Calpain1/2 (Homo sapiens) (UniProt P17655+P07384); assay: Inhibition of calpain (unknown origin) at 100 nM relative to control; type: protein assay
[10] = biological target: T5, Cathepsin K (Homo sapiens) (UniProt P43235); assay: Inhibition of cathepsin K (unknown origin) at 10 uM relative to control
T5 sequence (whole entry): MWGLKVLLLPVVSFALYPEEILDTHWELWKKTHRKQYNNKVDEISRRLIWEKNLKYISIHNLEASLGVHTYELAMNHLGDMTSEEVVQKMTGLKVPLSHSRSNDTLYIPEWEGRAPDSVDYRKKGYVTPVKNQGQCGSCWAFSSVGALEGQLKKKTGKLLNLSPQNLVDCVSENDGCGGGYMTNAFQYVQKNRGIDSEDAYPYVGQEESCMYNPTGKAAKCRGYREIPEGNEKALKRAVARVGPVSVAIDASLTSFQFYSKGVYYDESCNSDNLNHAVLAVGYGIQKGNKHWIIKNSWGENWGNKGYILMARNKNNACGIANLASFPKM

[11] = biological target: T6, Trypsin (Homo sapiens) (UniProt P07477+P07478+P35030); assay: Inhibition of trypsin (unknown origin) at 100 nM relative to control; type: protein assay
[12] = biological target: T5, Cathepsin K (Homo sapiens); assay: Inhibition of cathepsin K (unknown origin) at 100 nM relative to control
[13] = biological target: Cathepsin B (Homo sapiens) (UniProt P07858); assay: Inhibition of cathepsin B (unknown origin) at 1 uM relative to control
[14] = biological target: Prothrombin (Homo sapiens) (UniProt P00734); assay: Inhibition of thrombin (unknown origin) at 10 uM relative to control
[15] = biological target: T4, Calpain1/2 (Homo sapiens); assay: Inhibition of calpain (unknown origin) at 1 uM relative to control; type: protein assay
[16] = biological target: Tryptase beta-2 (Homo sapiens) (UniProt P20231); assay: Inhibition of tryptase b2 (unknown origin) at 10 uM relative to control
[17] = biological target: Cathepsin B (Homo sapiens) (UniProt P07858); assay: Inhibition of cathepsin B (unknown origin) at 100 nM relative to control
[18] = biological target: Tryptase beta-2 (Homo sapiens) (UniProt P20231); assay: Inhibition of tryptase b2 (unknown origin) at 1 uM relative to control
[19] = biological target: T6, Trypsin (Homo sapiens); assay: Inhibition of trypsin (unknown origin) at 1 uM relative to control; type: protein assay
[20] = biological target: T4, Calpain1/2 (Homo sapiens); assay: Inhibition of calpain (unknown origin) at 10 uM relative to control; type: protein assay
[21] = biological target: T3, Cathepsin L2 (Homo sapiens); assay: Inhibition of cathepsin V (unknown origin) at 10 uM relative to control
[22] = biological target: Cathepsin S (Homo sapiens) (UniProt P25774); assay: Inhibition of cathepsin S (unknown origin) at 10 uM relative to control
[23] = biological target: T6, Trypsin (Homo sapiens); assay: Inhibition of trypsin (unknown origin) at 10 uM relative to control; type: protein assay
[24] = biological target: Tryptase beta-2 (Homo sapiens) (UniProt P20231); assay: Inhibition of tryptase b2 (unknown origin) at 100 nM relative to control
[25] = biological target: Procathepsin L (Homo sapiens) (UniProt P07711); assay: Inhibition of cathepsin L (unknown origin) at 10 uM relative to control
[26] = biological target: Prothrombin (Homo sapiens) (UniProt P00734); assay: Inhibition of thrombin (unknown origin) at 1 uM relative to control
[27] = biological target: Cathepsin S (Homo sapiens) (UniProt P25774); assay: Inhibition of cathepsin S (unknown origin) at 100 nM relative to control
[28] = biological target: T5, Cathepsin K (Homo sapiens); assay: Inhibition of cathepsin K (unknown origin) at 1 uM relative to control
[29] = biological target: T3, Cathepsin L2 (Homo sapiens); assay: Inhibition of cathepsin V (unknown origin) at 100 nM relative to control
[30] = biological target: Procathepsin L (Homo sapiens) (UniProt P07711); assay: Inhibition of cathepsin L (unknown origin) at 100 nM relative to control
[31] = biological target: Procathepsin L (Homo sapiens) (UniProt P07711); assay: Inhibition of cathepsin L (unknown origin) at 1 uM relative to control

Cathepsin S (Homo sapiens), sequence (P25774 115-331 limits assumed): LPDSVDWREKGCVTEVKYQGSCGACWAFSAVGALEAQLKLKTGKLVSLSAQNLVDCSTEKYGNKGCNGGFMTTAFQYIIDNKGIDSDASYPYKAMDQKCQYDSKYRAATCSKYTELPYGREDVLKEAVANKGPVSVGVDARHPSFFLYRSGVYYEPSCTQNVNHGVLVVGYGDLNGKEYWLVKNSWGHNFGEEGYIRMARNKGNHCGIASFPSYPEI
Tryptase beta-2 (Homo sapiens), sequence (P20231 whole entry): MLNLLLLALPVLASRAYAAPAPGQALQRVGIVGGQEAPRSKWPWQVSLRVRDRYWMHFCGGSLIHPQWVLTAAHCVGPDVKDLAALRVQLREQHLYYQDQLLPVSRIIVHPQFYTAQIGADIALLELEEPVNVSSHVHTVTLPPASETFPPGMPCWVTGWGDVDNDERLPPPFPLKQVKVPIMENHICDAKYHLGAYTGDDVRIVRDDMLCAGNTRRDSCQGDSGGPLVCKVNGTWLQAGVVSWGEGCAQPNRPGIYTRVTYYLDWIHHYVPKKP
T4 sequence (P07384 whole entry, looked up): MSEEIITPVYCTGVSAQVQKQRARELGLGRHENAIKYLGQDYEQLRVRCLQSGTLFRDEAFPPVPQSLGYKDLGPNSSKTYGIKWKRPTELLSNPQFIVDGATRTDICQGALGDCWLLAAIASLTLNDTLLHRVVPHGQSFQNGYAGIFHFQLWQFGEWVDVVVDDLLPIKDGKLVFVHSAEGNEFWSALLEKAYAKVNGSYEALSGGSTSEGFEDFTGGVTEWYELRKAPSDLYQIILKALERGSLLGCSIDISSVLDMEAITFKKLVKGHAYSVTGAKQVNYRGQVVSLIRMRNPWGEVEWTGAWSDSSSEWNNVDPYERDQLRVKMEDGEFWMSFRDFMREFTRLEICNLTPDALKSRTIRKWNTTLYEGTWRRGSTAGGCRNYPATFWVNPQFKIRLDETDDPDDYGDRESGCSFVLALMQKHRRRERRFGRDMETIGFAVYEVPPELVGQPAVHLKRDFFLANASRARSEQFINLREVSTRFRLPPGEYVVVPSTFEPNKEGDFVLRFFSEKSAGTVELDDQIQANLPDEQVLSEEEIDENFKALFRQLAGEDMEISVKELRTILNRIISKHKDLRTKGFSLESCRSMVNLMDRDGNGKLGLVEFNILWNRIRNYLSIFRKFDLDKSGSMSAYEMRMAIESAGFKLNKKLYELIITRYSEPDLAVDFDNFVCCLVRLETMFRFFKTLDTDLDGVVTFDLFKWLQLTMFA
T4 sequence (P17655 whole entry, looked up): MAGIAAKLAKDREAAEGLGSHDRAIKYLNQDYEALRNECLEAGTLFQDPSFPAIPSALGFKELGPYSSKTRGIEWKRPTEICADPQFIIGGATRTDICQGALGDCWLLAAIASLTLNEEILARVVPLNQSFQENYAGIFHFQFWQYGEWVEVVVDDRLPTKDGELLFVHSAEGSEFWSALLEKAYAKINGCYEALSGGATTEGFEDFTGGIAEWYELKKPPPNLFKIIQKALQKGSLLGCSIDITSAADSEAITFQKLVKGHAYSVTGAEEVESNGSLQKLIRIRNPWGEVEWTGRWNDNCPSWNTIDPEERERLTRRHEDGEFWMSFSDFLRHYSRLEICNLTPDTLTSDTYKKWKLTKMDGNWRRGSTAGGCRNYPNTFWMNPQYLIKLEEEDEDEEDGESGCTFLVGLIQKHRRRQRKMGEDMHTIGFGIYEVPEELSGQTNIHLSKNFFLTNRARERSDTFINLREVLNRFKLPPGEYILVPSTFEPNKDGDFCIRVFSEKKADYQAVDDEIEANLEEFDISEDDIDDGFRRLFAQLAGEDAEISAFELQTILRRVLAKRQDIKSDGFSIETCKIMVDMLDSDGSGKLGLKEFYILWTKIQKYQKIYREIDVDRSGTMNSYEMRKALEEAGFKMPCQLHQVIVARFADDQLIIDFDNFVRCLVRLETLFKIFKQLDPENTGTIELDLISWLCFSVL
Procathepsin L (Homo sapiens), sequence (P07711 114-333 limits assumed): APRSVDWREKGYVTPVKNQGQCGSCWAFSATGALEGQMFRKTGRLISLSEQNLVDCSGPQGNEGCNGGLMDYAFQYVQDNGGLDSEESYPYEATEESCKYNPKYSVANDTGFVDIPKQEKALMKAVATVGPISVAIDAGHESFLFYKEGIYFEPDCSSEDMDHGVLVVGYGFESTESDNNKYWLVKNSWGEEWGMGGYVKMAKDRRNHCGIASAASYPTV

CCC(=O)[C@H](CCCNC(=N)N)NC(=O)[C@@H]1CCCN1C(=O)[C@@H](NC(=O)[C@H](CC(C)C)NC(=O)OCc1ccccc1)C(C)C
GI50 [1]: > 20000 nM | inhibition [2]: inactive | Ki [3]: > 5000 nM | Activity [4]: inactive

CC(C)[C@H](NC(=O)c1ccc(Br)cc1)C(=O)N1CCCC[C@H]1C(=O)N[C@@H](CCCNC(=N)N)C(=O)CF
inhibition [5]: 98.2% | inhibition [6]: 4.6% | inhibition [7]: 85.7% | inhibition [8]: 32.1% | inhibition [9]: 25.9% | inhibition [10]: 98.9% | inhibition [11]: 65% | inhibition [12]: 68.7% | inhibition [13]: 79.7% | inhibition [14]: 75.8% | inhibition [15]: 76% | inhibition [16]: 31% | GI50 [1]: 460 nM | inhibition [17]: 10.7% | inhibition [18]: 3.4% | inhibition [19]: 91% | inhibition [20]: 112% | inhibition [21]: 86.3% | inhibition [22]: 99.7% | inhibition [23]: 93.7% | inhibition [24]: 1% | inhibition [25]: 36.2% | inhibition [26]: 19.4% | inhibition [27]: 82.2% | inhibition [28]: 98.1%

CC(C)[C@H](NC(=O)c1ccc(Br)cc1)C(=O)N[C@@H](CO)C(=O)N[C@@H](CCCNC(=N)N)C(=O)CF
inhibition [29]: 29.8% | inhibition [5]: 100% | inhibition [6]: 2.3% | inhibition [7]: 100% | inhibition [8]: 58.4% | inhibition [9]: 98.5% | inhibition [30]: 13% | inhibition [10]: 89.7% | inhibition [11]: 64% | inhibition [12]: 28.8% | inhibition [13]: 99.5% | inhibition [14]: 41.8% | inhibition [15]: 99.8% | inhibition [16]: 47.5% | GI50 [1]: 150 nM | inhibition [17]: 88.7% | inhibition [18]: 15.3% | inhibition [31]: 11.2% | inhibition [19]: 92.6% | inhibition [20]: 105% | inhibition [21]: 94.1% | inhibition [22]: 100% | inhibition [23]: 94.2% | inhibition [24]: 6.5% | inhibition [25]: 49.4% | inhibition [26]: 1.1% | inhibition [27]: 99% | inhibition [28]: 38.3%
